In paper PMC10054553, “Development of the First ^18F-Labeled Radiohybrid-Based Minigastrin Derivative with High Target Affinity and Tumor Accumulation by Substitution of the Chelating Moiety” (Pharmaceutics, 2023):

Assays:
CCK-2R = molecular target: T1, CCK-2R (Rattus norvegicus, UniProt P30553); assay: CCK-2R-mediated internalization on AR42J cells; type: cell-based; settings: for Internalization Values (%F11N) 6 h: relative to the reference DOTA-PP-F11N; for Internalization Values (%) 1 h / Internalization Values (%) 2 h / Internalization Values (%) 4 h / Internalization Values (%) 6 h: % of applied activity, 37 °C, 0.25 pmol/well, AR42J cells
T1 construct: CCK-2R-expressing rat pancreatic cancer cells AR42J; host or cells: AR42J (rat pancreatic cancer cells)
T1 sequence (P30553 1-452): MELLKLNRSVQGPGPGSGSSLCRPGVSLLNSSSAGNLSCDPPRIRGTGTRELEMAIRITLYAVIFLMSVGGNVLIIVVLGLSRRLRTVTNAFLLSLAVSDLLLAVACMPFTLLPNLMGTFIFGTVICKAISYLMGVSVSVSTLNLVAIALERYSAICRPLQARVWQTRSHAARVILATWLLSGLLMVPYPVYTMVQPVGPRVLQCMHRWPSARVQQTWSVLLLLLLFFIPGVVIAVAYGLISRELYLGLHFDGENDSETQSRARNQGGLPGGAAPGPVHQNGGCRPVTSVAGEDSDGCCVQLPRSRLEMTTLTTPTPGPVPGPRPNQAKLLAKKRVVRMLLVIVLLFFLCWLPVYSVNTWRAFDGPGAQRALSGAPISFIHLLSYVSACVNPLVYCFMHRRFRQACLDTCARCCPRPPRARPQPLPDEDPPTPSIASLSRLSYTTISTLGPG
Protocol: Figure 3 (a) CCK-2R-mediated internalization (0.25 pmol/well) measured on AR42J cells as percent (%) of applied activity (incubation at 37 °C for 1, 2, 4 and 6 h, RPMI 1640, 5 mm L-Gln, 5 mL non-essential amino acids (100×), 10% FCS + 5% BSA (v/v), 3.0 × 10^5 cells/mL/well). (b) CCK-2R-mediated internalization of [^177Lu]Lu-DOTA-rhCCK-16 (green), [^177Lu]Lu-(R)-DOTAGA-rhCCK-16 (orange), [^177Lu]Lu-DOTA-rhCCK-18 (red) and […] after incubation at 37 °C for 6 h as percent of reference (% of [^177Lu]Lu-DOTA-PP-F11N). * data taken from Holzleitner et al..
Cell Culture. CCK-2R-expressing rat pancreatic cancer cells AR42J (CLS GmbH, Eppelheim, Germany) were cultivated in monolayers in CELLSTAR® cell culture flasks acquired from Greiner Bio-One GmbH (Frickenhausen, Germany) at 37°C in a humidified atmosphere (5% CO2) using a HERAcell 150i-Incubator (Thermo Fisher Scientific Inc., Waltham, United States). The nutrient medium RPMI 1640 medium, supplemented with 5 mM L-Gln 5 mL non-essential amino acids (100×) and 10% FCS, was used. Furthermore, a Dulbecco’s PBS solution with 0.1% EDTA (v/v) was applied to detach the cells for cell passaging. The detached cells were counted using a Neubauer hemocytometer (Paul Marienfeld, Lauda-Königshofen, Germany). In addition, all operations under sterile conditions were accomplished using a MSC-Advantage safety workbench (Thermo Fisher Scientific Inc., Waltham, United States). […]
Internalization Studies. For the determination of the internalization kinetics of the various peptides, AR42J cells (3.0 × 10^5 cells/well) were seeded into polylysine-coated 24-well plates, adding 1 mL of nutrient medium. Afterwards, the cells were incubated for 24 ± 2 h at 37°C in a humidified atmosphere […]
On the day of the experiment, the medium was removed, and each well was washed with nutrient medium (300 μL). Afterwards 200 μL of nutrient medium, 25 μL of the 177Lu-labeled peptide (0.3 pmol, n = 6) and either 25 μL of nutrient medium for internalization studies ( n = 3) or 25 μL of [natLu]Lu-DOTA-PP-F11N (10 μmol) for competition studies ( n = 3) were added. Thereafter, the assay was incubated for various time points (1, 2, 4 and 6 h) at 37°C in a humidified atmosphere (5% CO2). After incubation, the cells were put on ice for at least 1 min to stop internalization kinetics and the supernatant was collected. Then, the cells were washed with an ice-cold nutrient medium (300 μL) and both fractions were unified. In order to displace the peptides from the cell membrane, 300 μL of an ice-cold glycine buffer (1 M, pH = 2.2) were added and the cells were incubated on ice for 15 min. Afterwards, the supernatant was collected, and the cells were washed with an ice-cold glycine buffer (300 μL, 1 M, pH = 2.2) while both fractions were unified. After lysis of the cells with NaOH (300 μL, 1 N) for 15 min, the respective wells were washed with NaOH (300 μL, 1 N) and both fractions were unified. The radioactivity of the supernatant, the acid wash and the lysed fractions were quantified using a γ-counter.
Lipophilicity Studies. Lipophilicity (depicted as octanol-phosphate-buffered saline solution (PBS, pH = 7.4) distribution coefficient, logD7.4) was determined by dissolving the 177Lu-labelled peptide (approx. 1 MBq) in a mixture (1/1, v/v) of n-octanol and PBS. The suspension was vortexed in a reaction vial (1.5 mL) for 3 min at room temperature and the vial was centrifuged at 9000 rpm for 5 min (Biofuge 15, Heraus Sepatech GmbH, Osterode, Germany). Amounts of 200 μL aliquots of both layers were measured separately in a γ-counter (Perkin Elmer, Waltham, MA, USA). The experiment was repeated […]
Stability Studies in Human Serum. The 177Lu- as well as 67Ga-labeled CCK-2R ligands (1 nmol, approx. 5 MBq) were incubated for 24 h in human serum (200 μL) at 37 °C. After incubation, ice-cold EtOH (125 μL) and MeCN (375 μL) were added and the suspension was centrifuged for 5 min at […]
5000 rpm. […]

[1] = Stability studies in human serum; type: in vitro ADME; settings: 37 °C, 24 h; for Intact peptide (%): n = 3, 1440 min; for SiOH-containing analog (%): n = 3, analog with hydrolyzed SiFA moiety
Protocol: In vitro stability studies in human serum after incubation at 37 °C for 24 h were performed as described in the Supplemental Material.
Stability Studies in Human Serum. The 177Lu- as well as 67Ga-labeled CCK-2R ligands (1 nmol,
approx. 5 MBq) were incubated for 24 h in human serum (200 μL) at 37 °C. After incubation, ice-cold
EtOH (125 μL) and MeCN (375 μL) were added and the suspension was centrifuged for 5 min at
5000 rpm. Then, the supernatant was transferred into new vials and centrifuged for another 5 min at
5000 rpm. After separating the precipitate from the solution, the stability of the ligands was determined

[2] = molecular target: Human serum albumin (HSA) (Homo sapiens, UniProt P02768); assay: Human serum albumin (HSA) binding, ultracentrifugation method; type: in vitro ADME; settings: HSA 700 µM in PBS, 37 °C, 30 min, n = 6, corrected for unspecific binding
Protocol: Human serum albumin (HSA) binding was determined in analogy to a previously published ultracentrifugation method. Therefore, the peptides of interest were incubated in a solution of HSA (700 µM in phosphate-buffered saline) at 37 °C for 30 min (n = 6). All values were corrected for unspecific binding.

Chain of Human serum albumin (HSA) (P02768 25-609): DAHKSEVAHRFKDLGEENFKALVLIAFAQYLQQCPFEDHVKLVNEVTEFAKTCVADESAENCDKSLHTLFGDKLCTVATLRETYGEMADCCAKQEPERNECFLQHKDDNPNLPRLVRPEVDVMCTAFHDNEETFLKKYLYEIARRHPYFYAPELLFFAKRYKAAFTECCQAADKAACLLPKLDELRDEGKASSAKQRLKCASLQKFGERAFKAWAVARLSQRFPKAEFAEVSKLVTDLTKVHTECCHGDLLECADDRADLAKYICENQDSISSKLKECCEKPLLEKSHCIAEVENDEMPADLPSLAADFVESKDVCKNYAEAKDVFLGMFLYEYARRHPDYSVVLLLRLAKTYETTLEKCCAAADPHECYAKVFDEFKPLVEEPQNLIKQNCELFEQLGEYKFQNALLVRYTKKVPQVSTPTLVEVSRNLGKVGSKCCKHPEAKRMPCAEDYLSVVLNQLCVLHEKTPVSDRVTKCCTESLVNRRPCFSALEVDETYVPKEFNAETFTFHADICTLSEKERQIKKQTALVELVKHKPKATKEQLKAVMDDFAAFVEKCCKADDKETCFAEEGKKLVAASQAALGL

CCCC[C@H](NC(=O)[C@H](Cc1c[nH]c2ccccc12)NC(=O)CNC(=O)[C@H](Cc1ccc(O)cc1)NC(=O)[C@H](C)NC(=O)CC[C@@H](NC(=O)CC[C@@H](NC(=O)CC[C@@H](NC(=O)CC[C@@H](NC(=O)CC[C@@H](NC(=O)CC[C@@H](NC(=O)[C@@H](CNC(=O)c1ccc([Si](F)(C(C)(C)C)C(C)(C)C)cc1)NC(=O)CN1CCN(CC(=O)O)CCN(CC(=O)O)CCN(CC(=O)O)CC1)C(=O)O)C(=O)O)C(=O)O)C(=O)O)C(=O)O)C(=O)O)C(=O)N[C@@H](CC(=O)O)C(=O)N[C@@H](Cc1ccccc1)C(N)=O [[^177Lu]Lu-DOTA-rhCCK-16, metal not drawn]
Internalization Values (%F11N) 6 h (CCK-2R): 215 ± 7 %F11N | Internalization Values (%) 1 h (CCK-2R): 19.5 ± 2.3% | Internalization Values (%) 2 h (CCK-2R): 33.1 ± 1.7% | Internalization Values (%) 4 h (CCK-2R): 43.9 ± 0.7% | Internalization Values (%) 6 h (CCK-2R): 51.1 ± 1.7% | Intact peptide (%) [1]: 21.8 ± 0.8% | SiOH-containing analog (%) ([1]; listed as [177Lu]Lu-DOTA-rhCCK-16): 69.1 ± 1.0% | HSA Binding (%) [2]: 89.1%

CCCC[C@H](NC(=O)[C@H](Cc1c[nH]c2ccccc12)NC(=O)CNC(=O)[C@H](Cc1ccc(O)cc1)NC(=O)[C@H](C)NC(=O)CC[C@@H](NC(=O)CC[C@@H](NC(=O)CC[C@@H](NC(=O)CC[C@@H](NC(=O)CC[C@@H](NC(=O)CC[C@@H](NC(=O)CC[C@@H](NC(=O)CC[C@@H](NC(=O)[C@@H](CNC(=O)c1ccc([Si](F)(C(C)(C)C)C(C)(C)C)cc1)NC(=O)CN1CCN(CC(=O)O)CCN(CC(=O)O)CCN(CC(=O)O)CC1)C(=O)O)C(=O)O)C(=O)O)C(=O)O)C(=O)O)C(=O)O)C(=O)O)C(=O)O)C(=O)N[C@@H](CC(=O)O)C(=O)N[C@@H](Cc1ccccc1)C(N)=O [[^19F]F-[^177Lu]Lu-DOTA-rhCCK-18] [metal not drawn]
Internalization Values (%F11N) 6 h (CCK-2R): 244 ± 7 %F11N | Internalization Values (%) 1 h (CCK-2R): 15.4 ± 1.4% | Internalization Values (%) 2 h (CCK-2R): 24.1 ± 1.6% | Internalization Values (%) 4 h (CCK-2R): 41.6 ± 2.6% | Internalization Values (%) 6 h (CCK-2R): 54.8 ± 1.5% | Intact peptide (%) [1]: 25.3 ± 3.1% | SiOH-containing analog (%) [1]: 67.7 ± 3.1% | HSA Binding (%) [2]: 62.6% | HSA Binding (%) ([2]; listed as [^177Lu]Lu-DOTA-rhCCK-18): 62.6%
